This is an account of results in publication PMC6271834, “Antiprotozoal Activity of (E)-Cinnamic N-Acylhydrazone Derivatives” (Molecules, 2014).

Where two headings read alike, the source gives them in different places.

Experiment [1] relates to Leishmania donovani (MHOM/ET/67/L82) axenic amastigotes. The experiment in a line: Leishmanicidal activity, axenic amastigotes, Alamar Blue. In kind it is cell-based. To be noted: for SI (Selectivity Index for leishmanicidal activity): L-6 cells versus L. donovani; for IC50: Leishmania donovani, axenic amastigotes, strain MHOM/ET/67/L82, 72 h, means of two determinations, read-out: L. donovani IC50. How it is done: Amastigotes of Leishmania donovani strain MHOM/ET/67/L82 were grown in axenic culture at 37 °C in SM medium at pH 5.4 supplemented with 10% heat-inactivated fetal bovine serum under an atmosphere of 5% CO2 in air. One hundred microliters of culture medium with 10^5 amastigotes from axenic culture with or without the compound to test were seeded in 96-well microtiter plates. […] Each drug was tested in duplicate and each assay was repeated at least once. After 72 h of incubation the plates were inspected under an inverted microscope to assure growth of the controls and sterile conditions. Ten microliters of Alamar Blue (12.5 mg resazurin dissolved in 100 mL phosphate buffered saline) were then added to each well and the plates incubated for another 2 h. Then the plates were read in a Spectramax Gemini XS microplate fluorometer (Molecular Devices Cooperation, Sunnyvale, CA, USA) using an excitation wave length of 536 nm and an emission wave length of 588 nm. Data were analyzed using the software Softmax Pro (Molecular Devices Cooperation, Sunnyvale, CA, USA). Decrease of fluorescence (=inhibition) was expressed as percentage of the fluorescence of control cultures. For the serial drug dilution assay inhibition values were plotted against the drug concentrations and IC50 values were calculated from the sigmoidal inhibition curves.
On the technique in general: Alamar Blue is a resazurin reagent that responds to reducing activity.

The test system of experiment [2] is Trypanosoma brucei rhodesiense (STIB900). The experiment in a line: Trypanocidal activity, bloodstream forms, Alamar Blue. In kind it is cell-based. To be noted: read-out: T.b. rhod. IC50. The protocol: Minimum essential medium (50 μL) supplemented according to a known procedure with 2-mercaptoethanol and 15% heat-inactivated horse serum was added to each well of a 96-well microtiter plate. Serial drug dilutions were prepared covering a range from 90 to 0.123 μg/mL. Then 10^4 bloodstream forms of T. b. rhodesiense STIB 900 in 50 μL were added to each well and the plate incubated at 37 °C under a 5% CO2 atmosphere for 72 h. Ten microliters of Alamar Blue (containing 12.5 mg resazurin dissolved in […] distilled water) were then added to each well and incubation continued for a further 2–4 h. The Alamar Blue dye is an indicator of cellular growth and/or viability. The blue, non-fluorescent, oxidized form becomes pink and fluorescent upon reduction by living cells. The plate was then read in a Spectramax Gemini XS microplate fluorometer (Molecular Devices Cooperation, Sunnyvale, CA, USA) using an excitation wavelength of 536 nm and emission wavelength of 588 nm. Fluorescence development was measured and expressed as percentage of the control. Data were transferred into the graphic programme Softmax Pro (Molecular Devices,) which calculated IC50 values. Melarsoprol was used as standard.

For experiment [3], the system named is L-6 rat myoblast cells. The experiment in a line: Cytotoxicity to L-6 cells, Alamar Blue. In kind it is cell-based. The following applies: for IC50: read-out: Cytot. L-6 Cells IC50. How it is done: Exactly 100 μL RPMI 1640 medium supplemented with 1% L-glutamine (200 mM) and 10% fetal bovine serum containing 4 × 10^4 L-6 cells (rat skeletal myoblasts) were added to each well of a 96-well microtiter plate. After 24 h, the medium was removed from all wells and replaced by 100 μL of fresh medium containing a 3-fold serial drug dilution covering a range from 200 μg/mL to 0.274 μg/mL, except for the control wells. After 72 h of incubation 10 μL of Alamar Blue (12.5 mg resazurin dissolved in 100 mL phosphate buffered saline) were added to each well and the plates were incubated for another 2 h. Then the plates were read with a Spectramax Gemini XS microplate fluorometer as described for the leishmanicidal assay. Podophyllotoxin was used as standard drug.

In experiment [4] the test system is Trypanosoma brucei rhodesiense (STIB900). The experiment in a line: Trypanocidal activity, bloodstream forms, Alamar Blue. To be noted: L-6 cells versus T. b. rhodesiense. It is filed as cell-based.
For experiment [5], the system named is cruzipain. The arrangement: method as in doi:10.1590/S0103-50532010000100021. To be noted: cited from earlier work.
Experiment [6] concerns L. major cathepsin L-like cysteine protease. More on the design: method as in PMID 9371086. The following applies: cited from earlier work.
Setting [7] is: bloodstream forms, STIB900, 72 h, means of two determinations.
[8] abbreviates: L6, L-6 rat skeletal myoblasts, 72 h, means of two determinations.
[9] abbreviates: L-6 rat skeletal myoblasts, 72 h, means of two determinations.

Turning to `COc1cc(/C=N/NC(=O)/C=C/c2ccccc2)ccc1O` [Compound 4], the “SI (Selectivity Index for leishmanicidal activity)” value in experiment [1] stood at 4.4. In addition, the IC50 (in general, the concentration at which inhibition is half-maximal) is 21.7 µM in experiment [1], 40.8 µM in experiment [2] (setting [7]) and 95.4 µM in experiment [3] (setting [8]). The “SI (Selectivity Index for trypanocyde activity)” value in experiment [4] is on record as 2.3.
Take `O=C(/C=C/c1ccccc1)NN=Cc1ccc(O)c(O)c1` [Compound 5, (E)-N'-(3,4-dihydroxybenzylidene)cinnamohydrazide]: in experiment [1], the “SI (Selectivity Index for leishmanicidal activity)” value is 1.2. The figures for the 50% inhibitory concentration (IC50) in experiment [1], in experiment [2] (setting [7]) and in experiment [3] (setting [8]) were 11.7 µM, 1.93 µM and 14 µM, respectively. The “Cytot. L-6 Cells IC50” value in experiment [3] (setting [9]) is “cytotoxic”. For the same molecule, the “SI (Selectivity Index for trypanocyde activity)” value in experiment [4] came out at 7.3.
Turning to `O=C(/C=C/c1ccccc1)N/N=C/c1ccc2c(c1)OCO2` [Compound 6], the “SI (Selectivity Index for leishmanicidal activity)” value in experiment [1] is given as 0.3. Besides, the IC50 in experiment [1] was found to be 12.5 µM; in experiment [2] (setting [7]), 89.5 µM; in experiment [3] (setting [8]) it was 4.3 µM. Besides, the “SI (Selectivity Index for trypanocyde activity)” value in experiment [4] is reported as 0.05.
As to `COc1cc(/C=N/NC(=O)/C=C/c2ccccc2)cc(OC)c1OC` [Compound 7], the “SI (Selectivity Index for leishmanicidal activity)” value in experiment [1] was found to be 34.3. Further, the IC50 was 3.5 µM in experiment [1], 49.3 µM in experiment [2] (setting [7]) and 120 µM in experiment [3] (setting [8]). Also, in experiment [4], the “SI (Selectivity Index for trypanocyde activity)” value is given as 2.4.
For `O=C(/C=C/c1ccccc1)N/N=C/c1ccc(F)cc1` [Compound 8] the same measures were over 13.8, 24.3 µM, 284 µM, over 335 µM and over 1.2.
For the molecule `O=C(/C=C/c1ccccc1)N/N=C/c1ccc([N+](=O)[O-])cc1` [Compound 9], the “SI (Selectivity Index for leishmanicidal activity)” value in experiment [1] is on record as 24.1. Besides, the IC50 is 10.6 µM in experiment [1], over 300 µM in experiment [2] (setting [7]) and 255 µM in experiment [3] (setting [8]).
Take `COc1ccc(/C=N/NC(=O)/C=C/c2ccccc2)cc1` [Compound 10]: the results for the IC50 in experiment [1], in experiment [2] (setting [7]) and in experiment [3] (setting [8]) were 13.8 µM, 111 µM and over 321 µM, respectively.
With `O=C(/C=C/c1ccccc1)N/N=C/c1ccc(Cl)cc1` [Compound 11, (2E)-N'-[(E)-4-Chlorobenzylidene]-3-phenylprop-2-enohydrazide], in experiment [1], the “SI (Selectivity Index for leishmanicidal activity)” value is listed as 6.0. The IC50 is 10.8 µM in experiment [1], 121 µM in experiment [2] (setting [7]) and 65.5 µM in experiment [3] (setting [8]). In addition, the “SI (Selectivity Index for trypanocyde activity)” value in experiment [4] came to 0.5.
With `O=C(/C=C/c1ccccc1)N/N=C/c1ccccc1` [Compound 12, (2E)-N'-[(E)-Benzylidene]-3-phenylprop-2-enohydrazide], the “SI (Selectivity Index for leishmanicidal activity)” value in experiment [1] stood at 3.6. Further, the IC50 in experiment [1] was 43.1 µM; in experiment [2] (setting [7]), over 300 µM; in experiment [3] (setting [8]) it was 157 µM.
Take `O=C(/C=C/c1ccccc1)N/N=C/c1ccc(O)cc1` [Compound 13]: in experiment [1], the “SI (Selectivity Index for leishmanicidal activity)” value amounted to 1.1. In addition, the IC50 turned out to be 36.7 µM in experiment [1], 82.5 µM in experiment [2] (setting [7]) and 40.4 µM in experiment [3] (setting [8]). Besides, the “SI (Selectivity Index for trypanocyde activity)” value in experiment [4] is given as 0.5.
For `COc1ccc(/C=N/NC(=O)/C=C/c2ccccc2)cc1OC` [Compound 14] the same measures were over 9.3, 31.2 µM, 67.6 µM, over 290 µM and over 4.3.
For the molecule `O=C(/C=C/c1ccccc1)N/N=C/c1ccccc1O` [Compound 15, (2E)-N'-[(E)-2-Hydroxybenzylidene]-3-phenylprop-2-enohydrazide], the “SI (Selectivity Index for leishmanicidal activity)” value in experiment [1] worked out at 4.1. Also, the results for the IC50 in experiment [1], in experiment [2] (setting [7]) and in experiment [3] (setting [8]) were 3.61 µM, 6.72 µM and 14.9 µM, respectively. The “Cytot. L-6 Cells IC50” value in experiment [3] (setting [9]) is on record as “cytotoxic”. The “SI (Selectivity Index for trypanocyde activity)” value in experiment [4] turned out to be 2.2.
In the case of `COc1ccc(/C=N/NC(=O)/C=C/c2ccccc2)cc1O` [Compound 16], in experiment [1], the “SI (Selectivity Index for leishmanicidal activity)” value was determined as 1.4. Further, the figures for the IC50 in experiment [1], in experiment [2] (setting [7]) and in experiment [3] (setting [8]) were 33.3 µM, 80.1 µM and 48.1 µM, respectively. Further, in experiment [4], the “SI (Selectivity Index for trypanocyde activity)” value is given as 0.6.
With `Nc1nc(N)nc(Nc2ccc([As]3SCC(CO)S3)cc2)n1` (centres unmarked) [MLSP, Melarsoprol, reference compound], the IC50 in experiment [2] (72 h) was found to be 0.003 µM.
Consider `CCCCCCCCCCCCCCCCOP(=O)([O-])OCC[N+](C)(C)C` [MTS, Miltefosine, reference compound], for which the IC50 in experiment [1] was 0.348 µM.
On to `COc1cc([C@@H]2c3cc4c(cc3[C@H](O)[C@H]3COC(=O)[C@H]23)OCO4)cc(OC)c1OC` [PPT, Podophyllotoxin, reference compound], for which the IC50 in experiment [3] (Rattus norvegicus, L6, 72 h) amounted to 0.006 µM.
Turning to “(E)-1-(benzo[d][1,3]dioxol-5-yl)-3-(4-bromophenyl)prop-2-en-1-one [Compound 1]”, the IC50 in experiment [5] is 20 µM.
On to “(E)-3-hydroxy-N'-((2-hydroxynaphthalen-1-yl)methylene)-7-methoxy-2-naphthohydrazide [Compound 2]”, for which, in experiment [6], the IC50 is 0.5 µM.
